Where two headings read alike, the source gives them in different places.
Assays:
[1] = test system: human cervical carcinoma HeLa; assay: MTT cytotoxicity assay, 48 h; assay type: cell-based; details: for IC50: Homo sapiens, HeLa, MTT, 48 h, read-out: IC50, µM Cervix HeLa; for Selectivity index: HeLa: IC50 in hFF3 / IC50 in HeLa
Procedure: (§1) On the first step of the biological evaluation of novel GA derivatives 3a-h, 4a-h, and 5a-h, we analyzed their cytotoxicity in a panel of cultured mammalian cells, including human cervical carcinoma HeLa and KB-3-1, human duodenal carcinoma HuTu-80, human lung adenocarcinoma A549, murine melanoma B16 cell lines, and nontransformed human fibroblasts hFF3. The cells were treated with derivatives for 48 h and cell viability was evaluated by 3-(4, 5-dimethylthiazol-2-yl)-2, 5-diphenyltetrazolium bromide (MTT) assay. Since the studied compounds contain two types of functional groups at position 3-acetoxy- or the hydroxyl-group, 3-acetoxy-GA 1 and GA-Me were used as references. Additionally, hierarchical clustering of cytotoxic data was carried out in order to reveal groups of compounds with similar cytotoxic profiles (Figure 2A).
(§2) Human cervical carcinoma HeLa and KB-3-1 cells, human duodenal carcinoma HuTu-80 cells, and human lung adenocarcinoma A549 cells were obtained from the Russian Culture Collection (Institute of Cytology, RAS, St. Petersburg, Russia). Melanoma B16-F10 (hereafter, melanoma B16) cells were obtained from the Cell Culture Bank of the Blokhin National Medical Oncology Research Center (Moscow, Russia). Nonmalignant fibroblasts hFF3 and RAW264.7 macrophages were kindly provided by Dr. Olga A. Koval (Institute of Chemical Biology and Fundamental Medicine, SB RAS, Novosibirsk, Russia) and Prof. Dmitry Kuprash (Engelhardt Institute of Molecular Biology, RAS, Moscow, Russia), respectively. The cells were cultured in DMEM (Sigma-Aldrich Inc., St. Louis, MO, USA) supplemented with 10% (v/v) heat-inactivated fetal bovine serum (FBS) (BioloT, St. Petersburg, Russia) and antibiotic–antimycotic solution (100 U/mL penicillin, 100 µg/mL streptomycin, 0.25 µg/mL amphotericin). […] The cells were incubated at 37 °C in a humidified 5% CO2-containing air atmosphere (hereafter referred to as standard conditions). GA derivatives were dissolved in DMSO (stock solutions: 10 mM) and stored at −20 °C prior to use.
(§3) Cells were seeded in tetra- or pentaplicates in 96-well plates at a density of 10^4 (tumor cells and […] fibroblasts) or 10^5 (RAW264.7 cells) cells per well. Cells were incubated under standard conditions for 24 h, followed by their treatment with the investigated derivatives (0.5–50 µM) or corresponding concentrations of DMSO (control) for a further 48 h (tumor cells and fibroblasts) or 24 h (RAW264.7 cells). At the end of incubation period, 10 µL of MTT solution was added to the cells (final concentration: 0.5 mg/mL) and plates were incubated for an additional 2 h under standard conditions. Then, the MTT-containing medium was aspirated and formazan crystals formed in living cells were solubilized with 100 µL of DMSO. The absorbance of each well was read at test and reference wavelengths of 570 and 620 nm, respectively, on a Multiscan RC plate reader (Thermo LabSystems, Helsinki, Finland). The IC50 values (the concentration of compounds leading to a decrease of A570 to 50% of A570^control) were calculated by extrapolation of the dose–response curves. […] A heatmap of SI values was constructed by Microsoft Excel 2010.

[2] = test system: murine melanoma B16; assay: MTT cytotoxicity assay, 48 h; assay type: cell-based; details: for Selectivity index: B16: IC50 in hFF3 / IC50 in B16; for IC50: Mus musculus, MTT, 48 h
Procedure: as §1, §2, §3

[3] = test system: nontransformed human fibroblasts hFF3; assay: MTT cytotoxicity assay, 48 h; assay type: cell-based; details: Homo sapiens, HFF-3, read-out: IC50, µM Fibroblast hFF3
Procedure: as §1, §2, §3

[4] = test system: human lung adenocarcinoma A549; assay: MTT cytotoxicity assay, 48 h; assay type: cell-based; details: for IC50: Homo sapiens, A549, MTT, 48 h; for Selectivity index: A549: IC50 in hFF3 / IC50 in A549
Procedure: as §1, §2, §3

[5] = test system: human cervical carcinoma KB-3-1; assay: MTT cytotoxicity assay, 48 h; assay type: cell-based; details: for IC50: Homo sapiens, KB 3-1, MTT, 48 h, read-out: IC50, µM Cervix KB-3-1; for Selectivity index: KB-3-1: IC50 in hFF3 / IC50 in KB-3-1
Procedure: as §1, §2, §3

[6] = test system: human duodenal carcinoma HuTu-80; assay: MTT cytotoxicity assay, 48 h; assay type: cell-based; details: for IC50: Homo sapiens, HuTu80, MTT, 48 h, read-out: IC50, µM Duodenum HuTu-80; for Selectivity index: HuTu-80: IC50 in hFF3 / IC50 in HuTu-80
Procedure: as §1, §2, §3

[7] = test system: HeLa, KB-3-1, HuTu-80, A549, B16 and hFF3 cells; assay: MTT cytotoxicity, summary over the panel of cell lines; assay type: cell-based
Procedure: as §1, §3

[8] = test system: carrageenan-induced peritonitis; assay: Carrageenan-induced peritonitis; assay type: in vivo, ICR mice; details: i.p. 1 h before carrageenan, 4 h
Procedure: To study the effect of 3d on carrageenan-induced peritonitis, ICR mice were injected with 1% carrageenan (250 μL) intraperitoneally (i.p.). Compound 3d (50 mg/kg), vehicle (10% Tween-80), dexamethasone (1 mg/kg) as a reference anti-inflammatory drug, and saline buffer were administered i.p. 1 h before peritonitis induction. The healthy uninflamed group (control) was injected i.p. by saline. Mice were sacrificed 4 h after carrageenan injection and their peritoneal cavities were washed with 2 mL of heparinized cold saline buffer to obtain peritoneal cells. The peritoneal exudates were collected and the total leukocyte counts were performed with a Neubauer chamber by optical microscopy after diluting the peritoneal fluid with Turk solution (1:20). To determine the differential leukocyte counts (total 100 cells), peritoneal cells were centrifuged and placed onto slides, stained with azur–eosin by Romanovsky–Giemsa and examined by optical microscopy. The results were expressed as the number of total leukocytes (×10^5 cells/mL) and the percentages of subpopulations of neutrophils, lymphocytes, and monocytes.

[9] = test system: carrageenan-induced paw edema; assay: Carrageenan-induced paw edema; assay type: in vivo, ICR mice; details: gastric gavage 1 h before carrageenan, 5 h after induction; 3d 50 mg/kg, indomethacin 20 mg/kg
Procedure: To induce paw edema, ICR mice were injected with 1% carrageenan (50 μL) on the plantar side of the right hind paw. […] Mice were sacrificed 5 h after induction of paw edema. The percent of edema weight in carrageenan-injected compound-treated groups in comparison to that in vehicle-treated control group was calculated according to the formula: % Edema=(M1−M2/M2)^compound/∑n(M1−M2/M2)^vehicle×n×100%, where M1 is the weight of the paw with carrageenan-induced edema; M2 is the weight of the intact paws; compound and vehicle correspond to the compound- and vehicle-treated phlogogen-injected mice, respectively; and n is the number of mice in the control group (n = 9). Furthermore, paw material was collected for subsequent histological analysis.
For histological analysis, the specimens of intact and edema paws from each animal were dehydrated in ascending ethanol and xylol and embedded in HistoMix paraffin (BioVitrum, Russia). Paraffin sections (5 μm) were sliced on a Microm HM 355S microtome (Thermo Fisher Scientific, Waltham, MA, USA) and stained with hematoxylin and eosin. Images were obtained using an Axiostar Plus microscope equipped with an Axiocam MRc5 digital camera (Zeiss, Oberkochen, Germany) at ×100 and ×400 magnifications.

[10] = median over all tested cell lines, read-out: median IC50

Row | SMILES | IC50 [1] | Selectivity index: HeLa [1] | Selectivity index: B16 [2] | IC50 [2] | IC50 [3] | IC50 [4] | Selectivity index: A549 [4] | IC50 [5] | Selectivity index: KB-3-1 [5] | IC50 [6] | Selectivity index: HuTu-80 [6] | IC50 [7, 10] | melting point | cytotoxicity in all tested cell lines [7] | IC50 ([7]; read-out: IC50 values with respect to all tested cell lines) | distribution of leukocyte subpopulations in peritoneal fluid [8] | decrease of the total leukocyte number in peritoneal exudates ([8]; 3d 50 mg/kg, dexamethasone 1 mg/kg) | decrease of the weight of edema compared with vehicle-treated mice [9]
1 | CC(=O)O[C@H]1CC[C@@]2(C)C(CC[C@]3(C)C2C(=O)C=C2[C@@H]4C[C@@](C)(c5nc(-c6ccccn6)no5)CC[C@]4(C)CC[C@]23C)C1(C)C (stereo partly drawn) [Compound 4f, 30-nor-3β-acetoxy-11-oxo-20-(3′-(pyridin-2′′-yl)-1′,2′,4′-oxadiazol-5′-yl)-18βH-olean-12-en] | 17.9 ± 7.7 µM | 0.6 | 1.9 | 6 ± 2.3 µM | 11.5 ± 1 µM | 40.3 ± 4.1 µM | 0.3 | 10.3 ± 1.2 µM | 1.1 | 11.4 ± 1 µM | 1.0 | 11.5 µM | 293.5 to 297.9 °C |  |  |  |  | 
2 | CC(=O)O[C@H]1CC[C@@]2(C)C(CC[C@]3(C)C2C(=O)C=C2[C@@H]4C[C@@](C)(c5nc(-c6cccnc6)no5)CC[C@]4(C)CC[C@]23C)C1(C)C (stereo partly drawn) [Compound 4g, 30-nor-3β-acetoxy-11-oxo-20-(3′-(pyridin-3′′-yl)-1′,2′,4′-oxadiazol-5′-yl)-18βH-olean-12-en] | > 50 µM |  |  | > 50 µM | > 50 µM | 49.7 ± 4.5 µM | >1.0 | 9.5 ± 0.5 µM | > 5.3 | 5.8 ± 0.5 µM | > 8.6 | 49.9 µM | 253.2 °C (dec.) |  |  |  |  | 
3 | CC(=O)O[C@H]1CC[C@@]2(C)C(CC[C@]3(C)C2C(=O)C=C2[C@@H]4C[C@@](C)(c5nc(-c6ccncc6)no5)CC[C@]4(C)CC[C@]23C)C1(C)C (stereo partly drawn) [Compound 4h, 30-nor-3β-acetoxy-11-oxo-20-(3′-(pyridin-4″-yl)-1′,2′,4′-oxadiazol-5′-yl)-18βH-olean-12-en] | > 50 µM |  |  | > 50 µM | > 50 µM | > 50 µM |  | > 50 µM |  | 49.7 ± 2.4 µM | >1.0 |  | 265.3 to 267.3 °C | nontoxic | ≥ 50 µM |  |  | 
4 | CC(C)c1noc([C@@]2(C)CC[C@]3(C)CC[C@]4(C)C(=CC(=O)C5[C@@]6(C)CC[C@H](O)C(C)(C)C6CC[C@]54C)[C@@H]3C2)n1 (stereo partly drawn) [Compound 5c, 30-nor-3β-hydroxy-11-oxo-20-(3′-isopropyl-1′,2′,4′-oxadiazol-5′-yl)-18βH-olean-12-en] | 2.6 ± 0.1 µM | 2.2 | 0.8 | 6.6 ± 0.1 µM | 5.6 ± 1 µM | 4.5 ± 1.1 µM | 1.2 | 5.9 ± 0.1 µM | 0.9 | 9.5 ± 0.5 µM | 0.6 | 5.8 µM | 216.4 to 219.7 °C |  |  |  |  | 
5 | CC(C)(C)c1noc([C@@]2(C)CC[C@]3(C)CC[C@]4(C)C(=CC(=O)C5[C@@]6(C)CC[C@H](O)C(C)(C)C6CC[C@]54C)[C@@H]3C2)n1 (stereo partly drawn) [Compound 5d, 30-nor-3β-hydroxy-11-oxo-20-(3′-tert-butyl-1′,2′,4′-oxadiazol-5′-yl)-18βH-olean-12-en] | 3.7 ± 0.9 µM | 5.8 | 1.9 | 11.3 ± 1.9 µM | 21.6 ± 3.4 µM | 23.5 ± 6.3 µM | 0.9 | 22.3 ± 3.7 µM | 1.0 | 8.8 ± 1.1 µM | 2.5 | 16.5 µM | 227.8 °C (dec.) |  |  |  |  | 
6 | CC1(C)C2CC[C@]3(C)C(C(=O)C=C4[C@@H]5C[C@@](C)(c6nc(-c7ccccc7)no6)CC[C@]5(C)CC[C@]43C)[C@@]2(C)CC[C@@H]1O (stereo partly drawn) [Compound 5e, 30-nor-3β-hydroxy-11-oxo-20-(3′-phenyl-1′,2′,4′-oxadiazol-5′-yl)-18βH-olean-12-en] | 20.3 ± 2.2 µM | > 2.5 |  | > 50 µM | > 50 µM | > 50 µM |  | > 50 µM |  | > 50 µM |  |  | 231.7 to 232.1 °C | nontoxic |  |  |  | 
7 | C[C@@H]1C[C@H]2[C@@H]3CCC4=CC(=O)C=C[C@]4(C)[C@@]3(F)[C@@H](O)C[C@]2(C)[C@@]1(O)C(=O)CO [dexamethasone, reference compound] |  |  |  |  |  |  |  |  |  |  |  |  |  |  |  | did not affect the distribution of the leukocyte subpopulation | 1.8 fold | 
8 | COc1ccc2c(c1)c(CC(=O)O)c(C)n2C(=O)c1ccc(Cl)cc1 [indomethacin, reference compound] |  |  |  |  |  |  |  |  |  |  |  |  |  |  |  |  |  | three-fold
